Reference: ChEMBL document CHEMBL1909046, “DrugMatrix in vitro pharmacology data”

Key:
[1] = DRUGMATRIX: Calcium Channel Type L, Dihydropyridine radioligand binding (ligand: [3H] Nitrendipine); type: cell membranes, Rattus norvegicus, Wistar, Cerebral cortex, Membrane; conditions: Not Active = under 50% inhibition at 10 µM
[2] = target: T1, Muscarinic acetylcholine receptor M4 (Homo sapiens, UniProt P08173); type: cell membranes, CHO-K1, Membrane; note: in other assays of this panel Not Active means under 50% inhibition at 10 µM
T1 sequence (P08173 whole entry): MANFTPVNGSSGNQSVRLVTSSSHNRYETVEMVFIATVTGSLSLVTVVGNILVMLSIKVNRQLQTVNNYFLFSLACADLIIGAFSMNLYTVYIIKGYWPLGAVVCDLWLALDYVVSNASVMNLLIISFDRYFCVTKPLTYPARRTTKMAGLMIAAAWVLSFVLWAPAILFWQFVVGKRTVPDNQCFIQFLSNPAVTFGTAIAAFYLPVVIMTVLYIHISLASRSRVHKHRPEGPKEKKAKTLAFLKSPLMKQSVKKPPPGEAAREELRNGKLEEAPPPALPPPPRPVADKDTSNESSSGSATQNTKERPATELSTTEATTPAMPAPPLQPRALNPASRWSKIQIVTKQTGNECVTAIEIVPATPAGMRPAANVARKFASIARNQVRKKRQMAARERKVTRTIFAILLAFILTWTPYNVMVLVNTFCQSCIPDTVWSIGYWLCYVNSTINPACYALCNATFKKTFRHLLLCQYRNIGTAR

[3] = target: T2, Endothelin-1 receptor (Homo sapiens, UniProt P25101); type: cell membranes, Membrane; conditions: cho-k1; note: in other assays of this panel Not Active means under 50% inhibition at 10 µM
T2 sequence (P25101 whole entry): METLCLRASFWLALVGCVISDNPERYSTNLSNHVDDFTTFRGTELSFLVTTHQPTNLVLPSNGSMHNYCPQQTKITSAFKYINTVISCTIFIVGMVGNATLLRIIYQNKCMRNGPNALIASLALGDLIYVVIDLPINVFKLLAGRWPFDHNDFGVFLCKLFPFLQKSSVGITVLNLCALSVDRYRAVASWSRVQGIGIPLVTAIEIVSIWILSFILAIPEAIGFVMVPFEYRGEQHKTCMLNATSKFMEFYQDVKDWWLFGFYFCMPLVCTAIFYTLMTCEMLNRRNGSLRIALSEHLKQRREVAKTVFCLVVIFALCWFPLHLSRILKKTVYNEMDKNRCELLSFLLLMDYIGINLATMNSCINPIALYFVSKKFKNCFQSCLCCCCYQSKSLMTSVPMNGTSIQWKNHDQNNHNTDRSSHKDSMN

[4] = target: Beta-3 adrenergic receptor (Homo sapiens, UniProt P13945); test: DRUGMATRIX: Adrenergic beta3 radioligand binding (ligand: [125I] Cyanopindolol); type: cell membranes, HEK293, Membrane; conditions: hek293; Not Active = under 50% inhibition at 10 µM
[5] = target: D(3) dopamine receptor (Homo sapiens, UniProt P35462); test: DRUGMATRIX: Dopamine D3 radioligand binding (ligand: [3H] Spiperone); type: cell membranes, CHO, Membrane
D(3) dopamine receptor, sequence (P35462 whole entry): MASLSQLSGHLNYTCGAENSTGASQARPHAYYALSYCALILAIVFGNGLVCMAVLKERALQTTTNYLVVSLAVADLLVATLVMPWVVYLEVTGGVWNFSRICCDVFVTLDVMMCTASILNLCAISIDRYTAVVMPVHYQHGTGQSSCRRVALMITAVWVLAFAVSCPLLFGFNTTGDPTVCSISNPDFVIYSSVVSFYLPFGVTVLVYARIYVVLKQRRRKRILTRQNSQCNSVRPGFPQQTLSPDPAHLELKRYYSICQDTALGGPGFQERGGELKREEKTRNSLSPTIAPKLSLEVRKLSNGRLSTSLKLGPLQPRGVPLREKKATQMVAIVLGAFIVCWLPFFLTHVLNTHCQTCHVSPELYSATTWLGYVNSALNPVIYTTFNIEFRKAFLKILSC

Beta-3 adrenergic receptor, sequence (P13945 whole entry): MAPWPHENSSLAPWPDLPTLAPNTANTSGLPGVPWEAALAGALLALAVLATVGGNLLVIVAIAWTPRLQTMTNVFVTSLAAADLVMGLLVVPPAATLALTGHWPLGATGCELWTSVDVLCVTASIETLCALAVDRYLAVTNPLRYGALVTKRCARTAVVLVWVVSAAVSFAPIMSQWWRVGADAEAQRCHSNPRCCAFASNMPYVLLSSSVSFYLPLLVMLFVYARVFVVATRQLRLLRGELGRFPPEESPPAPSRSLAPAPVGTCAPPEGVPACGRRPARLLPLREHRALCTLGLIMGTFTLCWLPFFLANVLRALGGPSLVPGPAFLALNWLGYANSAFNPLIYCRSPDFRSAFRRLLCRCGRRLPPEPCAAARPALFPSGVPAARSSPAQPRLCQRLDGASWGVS

SMILES | IC50 [1] | Ki [1] | IC50 ([2]; cho-k1) | IC50 [3] | IC50 [4] | IC50 ([5]; cho) | IC50 ([2]; read-out: IC50) [nM] | Ki ([2]; read-out: Ki) [nM] | IC50 ([5]; read-out: IC50) [nM] | Ki ([5]; read-out: Ki) [nM]
O=c1c(-c2ccc(O)cc2)coc2cc(O)cc(O)c12 [GENISTEIN] | Not Active | Not Active | Not Active | Not Active | Not Active | Not Active | – | – | – | –
CN(C)C(=N)NC(=N)N [METFORMIN] | Not Active | Not Active | Not Active | Not Active | Not Active | Not Active | – | – | – | –
C[C@H]1O[C@H](O[C@H]2[C@H](O)[C@@H](O)[C@@H](O[C@H]3[C@H](O)[C@@H](O)C(O)O[C@@H]3CO)O[C@@H]2CO)[C@H](O)[C@@H](O)[C@@H]1N[C@H]1C=C(CO)[C@@H](O)[C@H](O)[C@H]1O (stereo partly specified) [ACARBOSE] | Not Active | Not Active | Not Active | Not Active | Not Active | Not Active | – | – | – | –
COc1ccccc1N | Not Active | Not Active | Not Active | Not Active | Not Active | Not Active | – | – | – | –
CC(O)COC[C@H]1O[C@@H]2O[C@H]3[C@H](O)[C@@H](O)[C@@H](O[C@H]4[C@H](O)[C@@H](O)[C@@H](O[C@H]5[C@H](O)[C@@H](O)[C@@H](O[C@H]6[C@H](O)[C@@H](O)[C@@H](O[C@H]7[C@H](O)[C@@H](O)[C@@H](O[C@H]8[C@H](O)[C@@H](O)[C@@H](O[C@H]1[C@H](O)[C@H]2O)O[C@@H]8COCC(C)O)O[C@@H]7COCC(C)O)O[C@@H]6COCC(C)O)O[C@@H]5COCC(C)O)O[C@@H]4COCC(C)O)O[C@@H]3COCC(C)O (stereo partly drawn) [2-HYDROXYPROPYL-BETA-CYCLODEXTRIN] | Not Active | Not Active | Not Active | Not Active | Not Active | Not Active | – | – | – | –
N[C@@H](Cn1ccc(=O)c(O)c1)C(=O)O [L-MIMOSINE] | Not Active | Not Active | Not Active | Not Active | Not Active | Not Active | – | – | – | –
CS(=O)(=O)Nc1ccc([N+](=O)[O-])cc1Oc1ccccc1 [NIMESULIDE] | Not Active | Not Active | Not Active | Not Active | Not Active | Not Active | – | – | – | –
C[N+](C)(C)C[C@H](O)CC(=O)[O-] [LEVOCARNITINE] | Not Active | Not Active | Not Active | Not Active | Not Active | Not Active | – | – | – | –
O=C(O)c1cc(-c2ccc(F)cc2F)ccc1O [DIFLUNISAL] | Not Active | Not Active | Not Active | Not Active | Not Active | Not Active | – | – | – | –
CN1CCN(C(c2ccccc2)c2ccccc2)CC1 [CYCLIZINE] | Not Active | Not Active | – | Not Active | Not Active | – | 852 | 119 | 2990 | 1020
CC(C)(C)NCC(O)COc1cccc2c1CC(O)C(O)C2 (stereo unspecified) [NADOLOL] | Not Active | Not Active | Not Active | Not Active | Not Active | Not Active | – | – | – | –
CCCNC(=O)NS(=O)(=O)c1ccc(Cl)cc1 [CHLORPROPAMIDE] | Not Active | Not Active | Not Active | Not Active | Not Active | Not Active | – | – | – | –
CO/N=C(\C(=O)N[C@@H]1C(=O)N2C(C(=O)O)=C(COC(C)=O)CS[C@H]12)c1csc(N)n1 [CEFOTAXIME] | Not Active | Not Active | Not Active | Not Active | Not Active | Not Active | – | – | – | –
Nc1cc(-c2ccncc2)c[nH]c1=O [INAMRINONE] | Not Active | Not Active | Not Active | Not Active | Not Active | Not Active | – | – | – | –
